Assay results from publication PMC11394742, “Discovery of Indole–Thiourea Derivatives as Tyrosinase Inhibitors: Synthesis, Biological Evaluation, Kinetic Studies, and In Silico Analysis” (International Journal of Molecular Sciences, 2024).
Where “and” joins values, the source holds several entries; their conditions need not be identical. Identical values can stand only once.

How the values were obtained:
[1] = molecular target: T1, mushroom tyrosinase (Agaricus bisporus, UniProt C7FF04); experiment: Tyrosinase inhibition assay; type: biochemical; details: L-tyrosine substrate, 37 °C 10 min, absorbance 490 nm; mean ± SEM
T1 construct: purchased Sigma Chemicals (St. Louis, MO, USA)
Description: In the enzymatic assay, a reaction mixture was prepared containing 0.1 M potassium phosphate buffer (pH 6.8), 2 mM L-tyrosine, and 2500 units of tyrosinase. Samples at various concentrations were dispensed as 20 µL aliquots into a 96-well plate. Each well received 130 µL of substrate solution (buffer and L-tyrosine), followed by 5 µL of tyrosinase and 45 µL of buffer solution.

[2] = DPPH free radical-scavenging assay; details: 0.2 mM DPPH in EtOH, 15 min, room temperature, 515 nm; read-out: SC50 ± SD (DPPH radical scavenging)
Description: The DPPH radical-scavenging activity was evaluated using Blois’ method. A 0.2 mM solution of DPPH in ethanol (EtOH) was prepared as the working reagent. Each sample (20 μL) was introduced into a 96-well plate, followed by the addition of 180 μL of the DPPH solution. […] The SC50 value, representing the concentration required to scavenge 50% of the DPPH radicals, was determined for each sample. Each measurement was performed in triplicate, and the mean value was reported. Ascorbic acid served as the positive control throughout the experiment.

[3] = Stability in aqueous solution (HPLC main peak area); type: physicochemical; details: room temperature, 275 nm
Description: Table S1. Gradient elution of the mobile phase for the synthetic compounds using HPLC.
The mobile phase consisted of Solution A (0.1% acetic acid in water) and Solvent B
(acetonitrile), with gradient elution employed throughout the analysis. The flow rate was
Time Solution (A) % Solution (B) %
Table S2. The stability of the synthesized compounds in aqueous solution.
Each compound (2.0 mg) was dissolved in an appropriate volume of water to achieve
an approximate concentration of 1-2 mg/mL. The solutions were then subjected to
ultrasonic treatment, filtered, and analyzed. During stability testing, varying degrees of
To facilitate analysis, these
samples were reconstituted with additional water or treated ultrasonically, filtered, and
absorption at approximately 275 nm, which was selected for detection. The integration
method employed was based on the minimum area approach to accurately determine the
retention time (min) and main peak area (%) of all synthesized compounds. The prepared
samples were stored at room temperature, and their stability in aqueous solution was
evaluated at 0, 2, 4 days, and 2 months using the aforementioned analytical method.
Compounds 0 day 2 day 4 days 2 months RT Area RT Area RT Area RT Area

[4] = tested on: B16F10 melanoma cells; details: cited from earlier work
[5] = molecular target: T2, mTYR (Agaricus bisporus, UniProt C7FF04); experiment: Kinetic mechanism analysis (Lineweaver–Burk plots); type: biochemical, mushroom
T2 construct: purchased Sigma Chemicals (St. Louis, MO, USA)
Description: Due to the potent inhibition of mushroom tyrosinase by compound 4b, kinetic studies were conducted using Lineweaver–Burk double reciprocal plots to elucidate its inhibitory mechanisms. […] concentrations (0 μM, 3 μM, 6 μM, and 12 μM) of the indole derivative 4b in the presence of varying L-tyrosine concentrations (0.1, 0.2, 0.4, 0.6, 0.8, 1 mM) were employed for the kinetic analyses. The Lineweaver–Burk plots generated four distinct lines with different slopes corresponding to each concentration of the derivative. […] Specifically, the KM values were 1.515, 7.846, 15.740, and 23.586 mM at 0, 3, 6, and 12 μM of 4b, respectively.
The kinetic experiment was intended to elucidate the inhibitory behavior of compound 4b against tyrosinase. Four different doses of 4b (0, 3, 6, and 12 µM) were investigated to characterize its inhibition pattern with respect to tyrosinase activity. Various concentrations of L-tyrosine substrate ranging from 0.1 to 1 mM were employed across all experiments. The initial incubation time and reading period mirrored those outlined in the anti-tyrosinase inhibition method. The maximum initial velocity (V₀) was determined from the linear phase of absorbance measurements taken over 5 min following the addition of the enzyme solution. The inhibition mode was further delineated using a Lineweaver–Burk plot, where the reciprocal of velocities (1/V) was plotted against the reciprocal of substrate concentrations utilized.

[6] = tested on: tyrosinase; details: natural product; cited from earlier work

T2 sequence (C7FF04 1-392): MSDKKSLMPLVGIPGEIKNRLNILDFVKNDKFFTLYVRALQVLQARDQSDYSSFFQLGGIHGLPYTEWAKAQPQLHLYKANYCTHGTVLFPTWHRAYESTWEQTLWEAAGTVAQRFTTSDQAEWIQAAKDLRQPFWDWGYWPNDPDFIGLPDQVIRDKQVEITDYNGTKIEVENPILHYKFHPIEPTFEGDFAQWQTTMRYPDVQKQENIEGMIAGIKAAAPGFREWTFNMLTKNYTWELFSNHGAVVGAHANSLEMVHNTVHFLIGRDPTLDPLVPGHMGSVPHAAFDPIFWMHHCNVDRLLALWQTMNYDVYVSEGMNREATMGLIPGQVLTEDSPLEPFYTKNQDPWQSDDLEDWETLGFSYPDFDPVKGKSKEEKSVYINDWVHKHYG
T1 sequence (C7FF04 1-392): as above

Compound | IC50 [1] [µM] | EC50 [2] [µM] | Main peak area (HPLC), stability in aqueous solution ([3]; 0 day) [%] | Main peak area (HPLC), stability in aqueous solution ([3]; 2 months) | Main peak area (HPLC), stability in aqueous solution ([3]; 2 day) [%] | Main peak area (HPLC), stability in aqueous solution ([3]; 4 days) [%] | melting point [°C] | Effect on B16F10 melanoma cells [4] | Inhibition mode ([5]; Lineweaver–Burk plots, versus L-tyrosine) | Ki ([5]; at 6 μM of 4b) [µM] | Ki ([5]; at 12 μM of 4b) [µM] | Vmax ([5]; consistent across 0-12 μM 4b, L-tyrosine 0.1-1 mM) [mM/min] | Tyrosinase inhibition activity [6]
CCn1cc(/C=N/NC(N)=S)c2ccccc21 [Compound 4f, (E)-2-((1-ethyl-1H-indol-3-yl)methylene)hydrazine-1-carbothioamide] | 127 ± 2.85 | > 1000 | 97.80 | 92.18% | 96.99 | 96.45 | 188 to 190 | – | – | – | – | – | –
O=C(O)c1c[nH]c2ccccc12 [indole-3-carboxylic acid] | – | – | – | – | – | – | – | inhibitory effects | – | – | – | – | –
NC(=S)N/N=C/c1c[nH]c2ccc(F)cc12 [Compound 4b, (E)-2-((5-fluoro-1H-indol-3-yl)methylene)hydrazine-1-carbothioamide] | 5.9 ± 2.47 | 544.3 ± 1.5 | 97.21 | 91.69% | 97.10 | 97.07 | – | – | competitive | 0.0568 | 0.0206 | 0.0135 | –
NC(=S)N/N=C/c1c[nH]c2ccc(Br)cc12 [Compound 4d, (E)-2-((5-bromo-1H-indol-3-yl)methylene)hydrazine-1-carbothioamide] | 14.9 ± 2.86 | 769 ± 2.6 | 97.79 | 91.28% | 97.41 | 96.80 | 215 to 217 | – | – | – | – | – | –
Cn1cc(/C=N/NC(N)=S)c2ccccc21 [Compound 4g, (E)-2-((1-methyl-1H-indol-3-yl)methylene)hydrazine-1-carbothioamide] | 155.5 ± 1.07 | 493.5 ± 0.7 | 97.47 | 95.20% | 94.12 | 94.58 | 199 to 201 | – | – | – | – | – | –
COc1ccc2[nH]cc(/C=N/NC(N)=S)c2c1 [Compound 4e, (E)-2-((5-methoxy-1H-indol-3-yl)methylene)hydrazine-1-carbothioamide] | 30.1 ± 1.77 | 603.4 ± 1 | 98.00 | 94.97% | 97.87 | 96.87 | – | – | – | – | – | – | –
OCCc1c[nH]c2ccccc12 [indole-3-ethanol] | – | – | – | – | – | – | – | – | – | – | – | – | significant tyrosinase inhibition activity
O=C1O[C@H]([C@@H](O)CO)C(O)=C1O [Ascorbic acid, reference compound] | – | 37.9 ± 0.3 | – | – | – | – | – | – | – | – | – | – | –
NC(=S)N/N=C/c1c[nH]c2ccc(Cl)cc12 [Compound 4c, (E)-2-((5-chloro-1H-indol-3-yl)methylene)hydrazine-1-carbothioamide] | 13.2 ± 1.68 | 659.2 ± 0.5 | 96.24 | 91.89% | 96.04 | 95.74 | 212 to 214 | – | – | – | – | – | –
COC(=O)c1ccc2[nH]cc(/C=N/NC(N)=S)c2c1 [Compound 4j, Methyl(E)-3-((2-carbamothioylhydrazineylidene)methyl)-1H-indole-5-carboxylate] | 103 ± 2.72 | 275.7 ± 2.7 | 97.37 | 90.86% | 97.13 | 96.75 | 247 to 249 | – | – | – | – | – | –
O=C(O)Cc1c[nH]c2ccccc12 [indole-3-acetic acid] | – | – | – | – | – | – | – | inhibitory effects | – | – | – | – | –
O=Cc1c[nH]c2ccccc12 [indole-3-carbaldehyde] | – | – | – | – | – | – | – | – | – | – | – | – | significant tyrosinase inhibition activity
NC(=S)N/N=C/c1c[nH]c2ccccc12 [Compound 4a, (E)-2-((1H-indol-3-yl)methylene)hydrazine-1-carbothioamide] | 7.9 ± 4.07 | – | 97.61 | 91.27% | 95.84 | 95.76 | – | – | – | – | – | – | –
Cn1cc(/C=N/NC(N)=S)c2cc(Br)ccc21 [Compound 4i, (E)-2-((5-bromo-1-methyl-1H-indol-3-yl)methylene)hydrazine-1-carbothioamide] | 46.3 ± 3.11 | > 1000 | 90.17 | 65% and 65.06% | 88.52 | 88.22 | 220 to 222 | – | – | – | – | – | –
COc1ccc2c(c1)c(/C=N/NC(N)=S)cn2C [Compound 4h, (E)-2-((5-methoxy-1-methyl-1H-indol-3-yl)methylene)hydrazine-1-carbothioamide] | 163 ± 3.81 | 340.2 ± 3.1 | 96.18 | 90.15% | 95.87 | 95.83 | 203 to 205 | – | – | – | – | – | –
NC(=S)N/N=C/c1c[nH]c2ccc(O)cc12 [Compound 4k, (E)-2-((5-hydroxy-1H-indol-3-yl)methylene)hydrazine-1-carbothioamide] | 43.3 ± 3.46 | 24.6 ± 3.7 | 96.00 | 94.13% | 95.85 | 95.32 | 261 to 263 | – | – | – | – | – | –
